Data reported in patent publication US10351530B2, “Arylcyclohexyl pyrazoles as NRF2 regulators” (GlaxoSmithKline Intellectual Property Development Limited, priority 2015, dated 2019).

What was measured:
[1] = test system: NQO1 specific enzyme activity in BEAS-2B cells; test: BEAS-2B NQO1 MTT Assay; type: cell-based; details: NQO1 specific activity induction
Excerpt: NAD(P)H:quinone oxidoreductase 1 (NQO1), also called DT diaphorase, is a homodimeric FAD-containing enzyme that catalyzes obligatory NAD(P)H-dependent two-electron reductions of quinones and protects cells against the toxic and neoplastic effects of free radicals and reactive oxygen species arising from one-electron reductions. The transcription of NQO1 is finely regulated by NRF2, and thus NQO1 activity is a good marker for NRF2 activation. On day one, frozen BEAS-2B cells (ATCC) are thawed in a water bath, counted, and re-suspended at a concentration of 250,000 cells/mL. Fifty microliters of cells are plated in 384 well black clear-bottomed plates. Plates are incubated at 37° C., 5% CO2 overnight. On day two, plates are centrifuged and 50 nL of compound or controls are added to the cells. Plates are then incubated at 37° C., 5% CO2 for 48 hours. On day four, medium is aspirated from the plate and crude cell lysates are made by adding 13 uL of 1× Cell Signaling Technologies lysis buffer with 1 Complete, Mini, EDTA-free Protease Inhibitor Tablet (Roche) for each 10 mL of lysis buffer. After lysis plates are incubated for 20 minutes at room temperature. Two microliters of lysate are removed for use in Cell Titer Glo assay (Promega) and MTT cocktail is prepared (Prochaska et. al. 1998) for measurement of NQO1 activity. Fifty microliters of MTT cocktail is added to each well, plate is centrifuged, and analyzed on an Envision plate reader (Perkin Elmer) using Absorbance 570 nm label for 30 minutes. Product formation is measured kinetically and the pEC50 of NQO1 specific activity induction is calculated by plotting the change in absorbance (Delta OD/min) versus the log of compound concentration followed by 3-parameter fitting.

Keap1/NRF2 = biological target: T1, Keap1/NRF2 (Homo sapiens, UniProt Q14145); test: NRF2-Keap1 FP Assay (Kelch domain (321-609) of Keap1, TAMRA-labeled NRF2 ETGE peptide); type: binding; details: Keap1 (321-609) 20 nM, Tamra labeled peptide 8 nM
T1 construct: Keap1 (321-609) is diluted to 40 nM (2×) in 1× assay buffer
Excerpt: One model for the NRF2-Keap1 interaction is through two binding sites in the Neh2 domain on NRF2. The two sites are referred to as the DLG binding motif (latch domain, uM affinity) and the ETGE binding motif (hinge domain, nM affinity). The Keap1 protein consists of an N-terminal region (NTR), a broad complex, tramtrack, and brick a′ brac domain (BTB), an intervening region (IVR), a double glycine repeat domain (DGR or Kelch), and a C-terminal region. The DLG and ETGE motifs of NRF2's Neh2 domain bind to the Kelch domain of Keap1 at different affinities. In the Keap1 Kelch fluorescence polarization (FP) assay, a TAMRA-labeled 16 mer peptide (AFFAQLQLDEETGEFL) containing the ETGE motif of NRF2 and the Kelch domain (321-609) of Keap1 is used. The assay determines if a compound interferes with the binding between Keap1 […] and the TAMRA-labeled peptide. Binding of TAMRA-labeled NRF2 peptide to Keap1 (321-609) results in a high FP signal. If a compound interferes with the binding between the peptide and the protein, it will cause the assay signal to decrease. Thus, assay signal is inversely proportional to binding inhibition.
100 nl of 100× compound dose response curves (serial 3-fold dilutions) in DMSO are stamped using an Echo liquid handling system (Labcyte) into 384-well low volume black assay plates (Greiner, #784076), with DMSO in columns 6 and 18. The top concentration of compound is located in columns 1 and 13. Keap1 (321-609) is diluted to 40 nM (2×) in 1× assay buffer (50 mM Tris, pH 8.0, 100 mM NaCl, 5 mM MgCl2, 1 mM DTT, 2 mM CHAPS, and 0.005% BSA) and 5 ul is added using a Multidrop Combi (Thermo Electron Corporation) equipped with a metal tip dispenser to all wells of the compound plate, except column 18. Column 18 receives only 5 ul of assay buffer. Immediately, 5 uL of 16 nM (2×) of Tamra labeled peptide (AFFAQLQLDEETGEFL, 21st Century Biochemicals) is added to all wells of the plate. The plates are spun at 500 rpm for 1 min, incubated for 1 hr at room temperature, and read on an Analyst GT (Molecular Devices) equipped with excitation (530/25 nm) and emission (580/10 nm) filters designed for Tamra probes. A 561 nm dichroic mirror is also used in the Analyst. The final assay concentrations of Keap1 (321-609) and Tamra labeled peptide are 20 nM and 8 nM, respectively. Fluorescence measurements, represented as mP, are used in the transformation of the data. Compound activity is calculated based on percent inhibition, normalized against controls in the assay (Control 1 contains the Tamra peptide and Keap1 (321-609) together (0% response) and control 2 contains the Tamra peptide alone (100% response)). Data analysis is handled using the software package Abase XE (Surrey, United Kingdom. The % inhibition values are calculated by the equation: 100−(100*((compound response-average control 2)/(average control 1−average control 2))). For calculation of pIC50s, Abase XE uses a four parameter equation.

NRF2/Keap1 = biological target: T2, NRF2/Keap1 (Homo sapiens, UniProt Q14145); test: NRF2-Keap1 TR-FRET Assay (full length NRF2 and full length Keap1); type: binding; details: 25 nM Keap1-FlagHis, 50 nM biotin-NRF2 added
T2 construct: full length NRF2 protein and full length Keap1 protein (Keap1 exists a dimer) are used
Excerpt: In the NRF2-Keap1 TR-FRET (time-resolved fluorescence resonance energy transfer) assay, full length NRF2 protein and full length Keap1 protein (Keap1 exists a dimer) are used. The assay detects the ability of compound to displace the binding of FlagHis-tagged Keap1 with biotinylated, Avi-tagged NRF2 protein. Biotin-NRF2 binds to streptavidin-europium (a component of the detection mix) and Keap1-FlagHis is recognized by anti-Flag APC (allophycocyanin) antibody (also a component of the detection mix). If binding occurs between the two proteins, there will be an energy transfer from the Eu+3 (donor) at 615 nm to the APC (acceptor) at 665 nm. A potential Keap1 inhibitor will cause a reduction in the TR-FRET signal by interfering with the binding of Keap1 to NRF2.
One hundred nanoliters of 100× compound dose response curves (serial 3-fold dilutions) in DMSO are stamped using an Echo liquid handling system (Labcyte) into 384-well, low volume, black assay plates (Greiner, #784076), with DMSO in columns 6 and 18. The top concentration of compound is located in columns 1 and 13. All reagents are diluted in assay buffer (50 mM Tris, pH 8.0, 5 mM MgCl2, 100 mM NaCl, 0.005% BSA, 1 mM DTT, and 2 mM CHAPS). The BSA, DTT, and CHAPS are added to the assay buffer on the day of assay. Using a Multidrop Combi (Thermo Electron Corporation) equipped with a metal tip dispenser, 5 ul of 25 nM Keap1-FlagHis protein is added to all wells of the compound plate, with the exception of the wells in column 18. Wells in column 18 receive 5 ul of assay buffer instead. Plates are centrifuged at 500 rpm for 1 minute, covered with a plate lid, and incubated at 37° C. for 2.25 hours. Plates are then removed from the incubator and allowed to cool to RT for 15 minutes. Five microliters of 50 nM biotin-NRF2 protein is then added to all wells of the plates and the plates are spun at 500 rpm for 1 minute, followed by incubating at 4° C. for 1.25 hours. The plates are then allowed to warm to RT for 15 minutes, followed by the addition of 10 ul of detection mix (1 nM Streptavidin Eu+ W1024 and 5 ug/ml mouse anti-DYKDDDDK IgG conjugated to SureLight APC antibody; both from Columbia Biosciences) to all wells. Plates are spun at 500 rpm for 1 minute, incubated for 1 hour at RT, and read on an Envision plate reader using a 320 nm excitation filter and 615 nm and 665 nm emission filters. Compound response (% inhibition) and potency (pIC50) are calculated based on the ratio of the two emissions (665 nm/615 nm) and then the transformed data is normalized against controls in the assay (control 1=1% DMSO in the presence of NRF2 and Keap1 protein and control 2=1% DMSO in the absence of protein). Data analysis is handled using the software package Abase XE (Surrey, United Kingdom). The % inhibition values are calculated from the ratio (transformed) data by the equation: 100−(100*(compound response-average control 2)/(average control 1−average control 2)).
For calculation of pIC50s, Abase XE uses a four parameter equation.

T1 sequence (Q14145 321-609): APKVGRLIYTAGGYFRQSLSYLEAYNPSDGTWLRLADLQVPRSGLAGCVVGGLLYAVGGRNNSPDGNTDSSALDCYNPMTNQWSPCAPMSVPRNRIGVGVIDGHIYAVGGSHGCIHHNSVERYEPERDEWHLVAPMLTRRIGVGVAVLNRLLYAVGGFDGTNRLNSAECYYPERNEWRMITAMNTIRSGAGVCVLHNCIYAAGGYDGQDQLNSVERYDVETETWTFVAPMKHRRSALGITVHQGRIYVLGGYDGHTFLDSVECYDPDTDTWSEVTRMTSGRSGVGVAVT
T2 sequence (Q14145 whole entry): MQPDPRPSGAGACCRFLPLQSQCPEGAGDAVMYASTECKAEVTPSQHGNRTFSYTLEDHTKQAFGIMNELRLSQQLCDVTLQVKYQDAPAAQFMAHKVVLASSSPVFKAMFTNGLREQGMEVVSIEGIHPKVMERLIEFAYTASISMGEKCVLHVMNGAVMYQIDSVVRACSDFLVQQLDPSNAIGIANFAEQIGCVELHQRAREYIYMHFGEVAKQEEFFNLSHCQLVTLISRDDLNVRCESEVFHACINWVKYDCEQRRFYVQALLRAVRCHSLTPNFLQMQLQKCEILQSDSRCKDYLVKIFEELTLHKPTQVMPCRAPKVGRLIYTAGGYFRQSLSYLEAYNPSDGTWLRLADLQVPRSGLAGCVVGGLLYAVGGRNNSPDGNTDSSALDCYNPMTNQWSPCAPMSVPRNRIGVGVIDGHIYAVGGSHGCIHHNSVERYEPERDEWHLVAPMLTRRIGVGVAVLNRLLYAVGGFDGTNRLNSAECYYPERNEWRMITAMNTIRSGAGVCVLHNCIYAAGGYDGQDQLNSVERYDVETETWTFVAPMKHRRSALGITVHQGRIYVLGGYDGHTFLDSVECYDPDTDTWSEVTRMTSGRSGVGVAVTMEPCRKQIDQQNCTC

## CC1(C)CCc2cnn([C@H]3CCC[C@@H](c4cccc(-n5ncc(C(=O)O)c5C5CC5)c4)C3)c21 (racemic) [Example 24, 5-Cyclopropyl-1-(3-(-3-(6,6-dimethyl-5,6-dihydrocyclopenta[c]pyrazol-1(4H)-yl)cyclohexyl)phenyl)-1H-pyrazole-4-carboxylic Acid]
[1]; Homo sapiens, BEAS-2B, 48 h
  EC50: 1000 to 10000 nM
Keap1/NRF2
  IC50: 100 to 1000 nM
NRF2/Keap1
  IC50: 1000 to 10000 nM

## CC1CCN(C(=O)C2CCCC(c3cccc(-n4ncc(C(=O)O)c4C4CC4)c3)C2)C1 (racemic) [Example 25, 5-Cyclopropyl-1-{3-[3-(3-methyl-pyrrolidine-1-carbonyl)-cyclohexyl]-phenyl}-1H-pyrazole-4-carboxylic Acid]
[1]; Homo sapiens, BEAS-2B, 48 h
  EC50: 1000 to 10000 nM
Keap1/NRF2
  IC50: 100 to 1000 nM
NRF2/Keap1
  IC50: 1000 to 10000 nM

## CCOC[C@@H]1CCCN1C(=O)C1CCCC(c2cccc(-n3ncc(C(=O)O)c3C3CC3)c2)C1 (single isomer, unassigned) [Example 18h]
[1]; 48 hours
  EC50: 1000 to 10000 nM
Keap1/NRF2
  IC50: 1000 to 10000 nM
NRF2/Keap1
  IC50: 1000 to 10000 nM

## CCCCC1CCc2cnn([C@@H]3CCC[C@@H](c4cccc(-n5ncc(C(=O)O)c5C5CC5)c4)C3)c21 (stereo in doubt) [Example 37, 1-(3-((1,3-cis)-3-(6-Butyl-5,6-dihydrocyclopenta[c]pyrazol-1(4H)-yl)cyclohexyl)phenyl)-5-cyclopropyl-1H-pyrazole-4-carboxylic Acid]
[1]; 48 hours
  EC50: 1000 to 10000 nM
Keap1/NRF2
  IC50: 100 to 1000 nM
NRF2/Keap1
  IC50: 1000 to 10000 nM

## O=C(O)c1cnn(-c2cccc(C3CCC(n4ncc5c4CCCC5=O)C3)c2)c1C1CC1 (stereo not drawn) [Example 15, 5-Cyclopropyl-1-{3-[3-(4-oxo-4,5,6,7-tetrahydro-indazol-1-yl)-cyclopentyl]-phenyl}-1H-pyrazole-4-carboxylic Acid]
[1]; Homo sapiens, BEAS-2B, 48 h
  EC50: 1000 to 10000 nM
Keap1/NRF2
  IC50: 100 to 1000 nM
NRF2/Keap1
  IC50: 1000 to 10000 nM

## O=C(O)c1cnn(-c2cccc(C3CCCC(C(=O)N4CCCCCC4)C3)c2)c1C1CC1 (stereo not drawn) [Example 20, 1-(3-(3-(Azepane-1-carbonyl)cyclohexyl)phenyl)-5-cyclopropyl-1H-pyrazole-4-carboxylic Acid]
[1]; Homo sapiens, BEAS-2B, 48 h
  EC50: 1000 to 10000 nM
Keap1/NRF2
  IC50: 100 to 1000 nM
NRF2/Keap1
  IC50: 1000 to 10000 nM

## CN(C(=O)C1CCCC(c2cccc(-n3ncc(C(=O)O)c3C3CC3)c2)C1)C1CCCCC1 (stereo not drawn) [Example 21, 1-(3-(3-(Cyclohexyl(methyl)carbamoyl)cyclohexyl)phenyl)-5-cyclopropyl-1H-pyrazole-4-carboxylic Acid]
[1]; Homo sapiens, BEAS-2B, 48 h
  EC50: 1000 to 10000 nM
Keap1/NRF2
  IC50: 100 to 1000 nM
NRF2/Keap1
  IC50: 1000 to 10000 nM

## CCCC1CCCCC1N(C)C(=O)C1CCCC(c2cccc(-n3ncc(C(=O)O)c3C3CC3)c2)C1 (stereo not drawn) [Example 22, 5-Cyclopropyl-1-(3-(3-(methyl(2-propylcyclohexyl)carbamoyl)cyclohexyl)phenyl)-1H-pyrazole-4-carboxylic Acid]
[1]; Homo sapiens, BEAS-2B, 48 h
  EC50: 1000 to 10000 nM
Keap1/NRF2
  IC50: 100 to 1000 nM
NRF2/Keap1
  IC50: 1000 to 10000 nM
